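Cells were grown in 96-well plates and exposed to each compound for 48 hours at five concentrations; endpoints were interpolated linearly between bracketing concentrations, or set to the highest concentration if not reached. Definition used: TGI = concentration required for complete inhibition of growth.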
Assays:
Assay in all cases: NCI tumour cell line growth inhibition, 48 h
786-0 renal = tested on: 786-0 renal
A498 renal = tested on: A498 renal
A549 NSCLC = tested on: A549 NSCLC
ACHN renal = tested on: ACHN renal
CAKI-1 renal = tested on: CAKI-1 renal
CCRF-CEM leukemia = tested on: CCRF-CEM leukemia
COLO 205 colon = tested on: COLO 205 colon
DLD-1 colon = tested on: DLD-1 colon
DMS 114 small cell lung = tested on: DMS 114 small cell lung
DMS 273 small cell lung = tested on: DMS 273 small cell lung
EKVX NSCLC = tested on: EKVX NSCLC
HCC-2998 colon = tested on: HCC-2998 colon
HCT-116 colon = tested on: HCT-116 colon
HCT-15 colon = tested on: HCT-15 colon
HL-60(TB) leukemia = tested on: HL-60(TB) leukemia
HOP-18 NSCLC = tested on: HOP-18 NSCLC
HOP-62 NSCLC = tested on: HOP-62 NSCLC
HOP-92 NSCLC = tested on: HOP-92 NSCLC
HT29 colon = tested on: HT29 colon
IGROV1 ovarian = tested on: IGROV1 ovarian
K-562 leukemia = tested on: K-562 leukemia
KM12 colon = tested on: KM12 colon
KM20L2 colon = tested on: KM20L2 colon
LOX IMVI melanoma = tested on: LOX IMVI melanoma
LXFL 529 NSCLC = tested on: LXFL 529 NSCLC
M14 melanoma = tested on: M14 melanoma
M19-MEL melanoma = tested on: M19-MEL melanoma
MALME-3M melanoma = tested on: MALME-3M melanoma
MOLT-4 leukemia = tested on: MOLT-4 leukemia
NCI-H226 lung = tested on: NCI-H226 lung
NCI-H23 lung = tested on: NCI-H23 lung
NCI-H460 lung = tested on: NCI-H460 lung
NCI-H522 lung = tested on: NCI-H522 lung
OVCAR-4 ovarian = tested on: OVCAR-4 ovarian
OVCAR-5 ovarian = tested on: OVCAR-5 ovarian
OVCAR-8 ovarian = tested on: OVCAR-8 ovarian
RPMI-8226 leukemia = tested on: RPMI-8226 leukemia
RXF 393 renal = tested on: RXF 393 renal
SF-268 CNS = tested on: SF-268 CNS
SF-295 CNS = tested on: SF-295 CNS
SF-539 CNS = tested on: SF-539 CNS
SK-MEL-2 melanoma = tested on: SK-MEL-2 melanoma
SK-MEL-28 melanoma = tested on: SK-MEL-28 melanoma
SK-MEL-5 melanoma = tested on: SK-MEL-5 melanoma
SK-OV-3 ovarian = tested on: SK-OV-3 ovarian
SN12C renal = tested on: SN12C renal
SNB-19 CNS = tested on: SNB-19 CNS
SNB-75 CNS = tested on: SNB-75 CNS
SNB-78 CNS = tested on: SNB-78 CNS
SW-620 colon = tested on: SW-620 colon
TK-10 renal = tested on: TK-10 renal
U251 CNS = tested on: U251 CNS
UACC-257 melanoma = tested on: UACC-257 melanoma
UACC-62 melanoma = tested on: UACC-62 melanoma
UO-31 renal = tested on: UO-31 renal
XF 498 CNS = tested on: XF 498 CNS
OVCAR-3 ovarian = tested on: OVCAR-3 ovarian
SR leukemia = tested on: SR leukemia

CCN1C[C@]2(C)CC[C@H](OC)C34C1C([C@H](OC(C)=O)[C@@H]32)[C@@]1(OC)C[C@H](OC)[C@H]2C[C@@H]4[C@@H]1[C@H]2O
TGI (786-0 renal): > 100 µM
TGI (A498 renal): > 100 µM
TGI (A549 NSCLC): > 100 µM
TGI (ACHN renal): > 100 µM
TGI (CAKI-1 renal): > 100 µM
TGI (CCRF-CEM leukemia): > 100 µM
TGI (COLO 205 colon): > 100 µM
TGI (DLD-1 colon): > 100 µM
TGI (DMS 114 small cell lung): > 100 µM
TGI (DMS 273 small cell lung): > 100 µM
TGI (EKVX NSCLC): > 100 µM
TGI (HCC-2998 colon): > 100 µM
TGI (HCT-116 colon): > 100 µM
TGI (HCT-15 colon): > 100 µM
TGI (HL-60(TB) leukemia): > 100 µM
TGI (HOP-18 NSCLC): > 100 µM
TGI (HOP-62 NSCLC): > 100 µM
TGI (HOP-92 NSCLC): > 100 µM
TGI (HT29 colon): > 100 µM
TGI (IGROV1 ovarian): > 100 µM
TGI (K-562 leukemia): > 100 µM
TGI (KM12 colon): > 100 µM
TGI (KM20L2 colon): > 100 µM
TGI (LOX IMVI melanoma): > 100 µM
TGI (LXFL 529 NSCLC): > 100 µM
TGI (M14 melanoma): > 100 µM
TGI (M19-MEL melanoma): > 100 µM
TGI (MALME-3M melanoma): > 100 µM
TGI (MOLT-4 leukemia): > 100 µM
TGI (NCI-H226 lung): > 100 µM
TGI (NCI-H23 lung): > 100 µM
TGI (NCI-H460 lung): > 100 µM
TGI (NCI-H522 lung): > 100 µM
TGI (OVCAR-4 ovarian): > 100 µM
TGI (OVCAR-5 ovarian): > 100 µM
TGI (OVCAR-8 ovarian): > 100 µM
TGI (RPMI-8226 leukemia): > 100 µM
TGI (RXF 393 renal): > 100 µM
TGI (SF-268 CNS): > 100 µM
TGI (SF-295 CNS): > 100 µM
TGI (SF-539 CNS): > 100 µM
TGI (SK-MEL-2 melanoma): > 100 µM
TGI (SK-MEL-28 melanoma): > 100 µM
TGI (SK-MEL-5 melanoma): > 100 µM
TGI (SK-OV-3 ovarian): > 100 µM
TGI (SN12C renal): > 100 µM
TGI (SNB-19 CNS): > 100 µM
TGI (SNB-75 CNS): > 100 µM
TGI (SNB-78 CNS): > 100 µM
TGI (SW-620 colon): > 100 µM
TGI (TK-10 renal): > 100 µM
TGI (U251 CNS): > 100 µM
TGI (UACC-257 melanoma): > 100 µM
TGI (UACC-62 melanoma): > 100 µM
TGI (UO-31 renal): > 100 µM
TGI (XF 498 CNS): > 100 µM

CN(C)CCNC(=O)c1cccc2c(Nc3ccc(S(N)(=O)=O)cc3)c3ccccc3nc12
TGI (786-0 renal): 4.92 µM
TGI (A498 renal): 7.08 µM
TGI (A549 NSCLC): 7.29 µM
TGI (ACHN renal): 5.2 µM
TGI (CAKI-1 renal): 13.6 µM
TGI (COLO 205 colon): 1.75 µM
TGI (DMS 114 small cell lung): 2.3 µM
TGI (DMS 273 small cell lung): 3.71 µM
TGI (EKVX NSCLC): 10.2 µM
TGI (HCC-2998 colon): 6.92 µM
TGI (HCT-116 colon): 1.74 µM
TGI (HCT-15 colon): 7.07 µM
TGI (HOP-18 NSCLC): 9.2 µM
TGI (HOP-62 NSCLC): 11.6 µM
TGI (HOP-92 NSCLC): 7.27 µM
TGI (HT29 colon): 8.35 µM
TGI (IGROV1 ovarian): 16 µM
TGI (K-562 leukemia): 9.61 µM
TGI (KM20L2 colon): 13.3 µM
TGI (LOX IMVI melanoma): 2.59 µM
TGI (LXFL 529 NSCLC): 2.23 µM
TGI (M14 melanoma): 5.72 µM
TGI (MALME-3M melanoma): 3.88 µM
TGI (MOLT-4 leukemia): > 100 µM
TGI (NCI-H226 lung): 3.05 µM
TGI (NCI-H23 lung): 5.39 µM
TGI (NCI-H460 lung): 1.96 µM
TGI (NCI-H522 lung): 2.8 µM
TGI (OVCAR-3 ovarian): 5.85 µM
TGI (OVCAR-4 ovarian): 5.77 µM
TGI (OVCAR-5 ovarian): 6.56 µM
TGI (OVCAR-8 ovarian): 3.73 µM
TGI (RPMI-8226 leukemia): 77.2 µM
TGI (SF-268 CNS): 7.49 µM
TGI (SF-295 CNS): 8.02 µM
TGI (SF-539 CNS): 3.23 µM
TGI (SK-MEL-2 melanoma): 3.69 µM
TGI (SK-MEL-28 melanoma): 3 µM
TGI (SK-MEL-5 melanoma): 10.3 µM
TGI (SK-OV-3 ovarian): 3.59 µM
TGI (SN12C renal): 3.9 µM
TGI (SNB-19 CNS): 10.7 µM
TGI (SNB-75 CNS): 4.48 µM
TGI (SR leukemia): > 100 µM
TGI (SW-620 colon): 1.96 µM
TGI (U251 CNS): 4.69 µM
TGI (UACC-257 melanoma): 9.83 µM
TGI (UACC-62 melanoma): 3.42 µM
TGI (UO-31 renal): 7.44 µM
TGI (XF 498 CNS): 1.81 µM

From PubChem BioAssay (NCI)
